Results reported in patent US10028992B2, “Methods of treating muscular dystrophy” (BOARD OF REGENTS OF THE NEVADA SYSTEM OF HIGHER EDUCATION …, priority 2012, dated 2018).

System: α7 integrin promoter
Assay: muscle cell-based assay: α7βgal+/− myoblasts/myotubes, LacZ reporter, β-galactosidase cleavage of FDG
Design: species or system mouse; Results in α7+/− β-galactosidase assay: scale not given here
Settings: for AC50: read-out: Fit Log AC50 (converted); for Fit Curve Class: key not given; for Results in a α7+/− β-galactosidase assay, Myotubes, 0.5 uM: compound at 0.5 uM; for Results in a α7+/− β-galactosidase assay, Myotubes, 1 uM: compound at 1 uM; for Results in a α7+/− β-galactosidase assay, Myotubes, 5 uM: compound at 5 uM; for Results in a α7+/− β-galactosidase assay, Myotubes, 10 uM: compound at 10 uM; for Results in a α7+/− β-galactosidase assay, Myotubes, 20 uM: compound at 20 uM; for Results in a α7+/− β-galactosidase assay, Myotubes, 40 uM: compound at 40 uM; for EC50: given as log AC50 (negative values), read-out: Fit LogAC50 (converted); for Results in α7+/− β-galactosidase assay: Myoblasts
In short: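 Fluorescein generated from FDG by β-galactosidase reports α7 integrin promoter activity in differentiated myoblasts from α7+/− LacZ knock-in pups. Screening hits then went to dose-response, western blotting and a myostatin counterscreen.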

[1] = Mus musculus, Table 12, log of AC50, given with negative sign, unit of AC50 not given
[2] = Table 12, fitted activity at zero concentration
[3] = Table 12 Compound data, concentration-response curve fit
[4] = curve fit, activity at zero concentration

Row | Structure (SMILES) | Results in a α7+/− β-galactosidase assay, Myotubes, 0.5 uM | Results in a α7+/− β-galactosidase assay, Myotubes, 1 uM | Results in a α7+/− β-galactosidase assay, Myotubes, 5 uM | Results in a α7+/− β-galactosidase assay, Myotubes, 10 uM | Results in a α7+/− β-galactosidase assay, Myotubes, 20 uM | Results in a α7+/− β-galactosidase assay, Myotubes, 40 uM | EC50 (Mus musculus) [µM] | Score (Table 12 compound data) | Fit Curve Class (curve class number) | Fit HillSlope (curve fit) | Fit Zero Activity [%] [4] [%] | other results
1 | Cc1ccc(C2=C(CC(=O)O)C(=O)CC2)cc1 [Compound 86] |  |  |  |  |  |  |  |  |  |  |  | AC50 [1]: 4.47 µM; Fit HillSlope (Table 12, curve fit): 0.8; Fit Zero Activity [%] [2]: 0.4963%; Fit Curve Class (Table 12): 2.1; Score [3]: 44
2 | Cc1ccc(NS(=O)(=O)c2ccc(-c3ccc(O)nn3)o2)c(C)c1 [drawing 477] | −0.04997 | 0.003075 | −0.3008 | −0.389 | −0.09047 | −0.1539 |  |  |  |  |  | 
3 | O=C1CCc2cc(S(=O)(=O)Nc3ccc(C(F)(F)F)cc3)cc3c2N1CC3 [Compound 138] |  |  |  |  |  |  | 11.2 | 42 | 2.1 | 1.3437 | −27.3652 | 
4 | O=C1c2ccccc2C(=O)C1(CC(O)O)c1ccccc1 [drawing 474] | −0.08689 | 0.05823 | −0.2367 | −0.3763 | −0.3304 | −0.4389 |  |  |  |  |  | 
5 | Cl.O=C(CN1CCOCC1)NCc1cc([N+](=O)[O-])ccc1O [Compound 166] |  |  |  |  |  |  | 12.6 | 42 | 2.1 | 1.3987 | 10.3691 | 
6 | COc1cccc(N2C(=O)CC(N3CCc4ccccc4C3)C2=O)c1 (stereo not drawn) [Compound 176] |  |  |  |  |  |  | 10 | 42 | 2.1 | 4.9549 | −19.4361 | 
7 | CCN(C(=O)c1ccc(S(=O)(=O)N(C)C)cc1)C(C)C(=O)Nc1ccc(C)cc1 (stereo not drawn) [drawing 348] | −0.152 | −0.2399 | −0.0943 | 0.05776 | −0.2237 | 0.02912 |  |  |  |  |  | 
8 | O=C(Nc1cc(-c2nc3ccccc3s2)ccc1Cl)c1ccc2c(c1)OCO2 [drawing 418] | 0.01013 | −0.09877 | 0.05089 | 0.3348 | −0.3294 | −0.3941 |  |  |  |  |  | 
9 | CC(/C=C(\O)c1ccccc1)=N\c1ccc(Br)c(Cl)c1 [Compound 130] |  |  |  |  |  |  | 11.2 | 43 | 2.1 | 4.5045 | 7.8122 | 
10 | COC(=O)C1=C(C)N=C(C)/C(=C(/O)OC)C1c1ccccc1OCc1c(C)no[n+]1[O-] (stereo not drawn) [Compound 12] |  |  |  |  |  |  |  |  |  |  |  | AC50 [1]: 2.82 µM; Emax (Mus musculus, read-out: Max Response [%]): 100%; Fit HillSlope (Table 12, curve fit): 1.4781; Fit Zero Activity [%] [2]: 9.3996%; Fit Curve Class (Table 12): 1.1; Score [3]: 85
11 | COc1ccc(-c2csc3ncnc(N4CCN(c5ccccc5[N+](=O)[O-])CC4)c23)cc1 [Compound 94] |  |  |  |  |  |  |  |  |  |  |  | Fit HillSlope (Table 12, curve fit): 4.9549; Fit Infinite Activity [%] (Table 12, fitted activity at infinite concentration): 138.031%; Fit Zero Activity [%] [2]: 9.6823%; Fit Curve Class (Table 12): 2.1; Fit Log AC50 (Table 12, log of AC50, given with negative sign, unit of AC50 not given): −5; Score [3]: 43
12 | O=C(N/N=C/c1c[nH]c2ccccc12)c1cc(Cl)ccc1O [drawing 409] | −0.05672 | −0.09286 | 0.2441 | −0.1364 | 0.01214 | −0.2587 |  |  |  |  |  | 
13 | O=C(O)CCCNC(=O)CCn1nnc2ccccc2c1=O [Compound 174] |  |  |  |  |  |  | 11.2 | 42 | 2.1 | 1.8579 | −20.386 | 
14 | Oc1nc(SCc2ccc(Cl)cc2)nc2ccsc12 [drawing 635] |  |  |  |  |  |  |  |  |  |  |  | Results in α7+/− β-galactosidase assay (0.5 uM): 0.07667; Results in α7+/− β-galactosidase assay (1 uM): 0.02077; Results in α7+/− β-galactosidase assay (5 uM): −0.02435; Results in α7+/− β-galactosidase assay (10 uM): −0.03652; Results in α7+/− β-galactosidase assay (20 uM): −0.1552; Results in α7+/− β-galactosidase assay (40 uM): −0.139
